Assay results taken from patent US9290478B2, “Substituted quinoxalines as FGFR kinase inhibitors” (ASTEX THERAPEUTICS LTD, priority 2010, dated 2016).

Key:
[1] = target: T1, Ba/F3-Flt3-transfected cells (Homo sapiens, UniProt P36888, cells depend on it, form not given); test: Ba/F3-Flt3 (minus IL3 or plus IL3) cellular proliferation assay; type: cell-based; settings: minus IL3
T1 construct: BAF3-FLT3 (MIN IL3) pIC50; other: minus IL3
T1 sequence (P36888 1-993): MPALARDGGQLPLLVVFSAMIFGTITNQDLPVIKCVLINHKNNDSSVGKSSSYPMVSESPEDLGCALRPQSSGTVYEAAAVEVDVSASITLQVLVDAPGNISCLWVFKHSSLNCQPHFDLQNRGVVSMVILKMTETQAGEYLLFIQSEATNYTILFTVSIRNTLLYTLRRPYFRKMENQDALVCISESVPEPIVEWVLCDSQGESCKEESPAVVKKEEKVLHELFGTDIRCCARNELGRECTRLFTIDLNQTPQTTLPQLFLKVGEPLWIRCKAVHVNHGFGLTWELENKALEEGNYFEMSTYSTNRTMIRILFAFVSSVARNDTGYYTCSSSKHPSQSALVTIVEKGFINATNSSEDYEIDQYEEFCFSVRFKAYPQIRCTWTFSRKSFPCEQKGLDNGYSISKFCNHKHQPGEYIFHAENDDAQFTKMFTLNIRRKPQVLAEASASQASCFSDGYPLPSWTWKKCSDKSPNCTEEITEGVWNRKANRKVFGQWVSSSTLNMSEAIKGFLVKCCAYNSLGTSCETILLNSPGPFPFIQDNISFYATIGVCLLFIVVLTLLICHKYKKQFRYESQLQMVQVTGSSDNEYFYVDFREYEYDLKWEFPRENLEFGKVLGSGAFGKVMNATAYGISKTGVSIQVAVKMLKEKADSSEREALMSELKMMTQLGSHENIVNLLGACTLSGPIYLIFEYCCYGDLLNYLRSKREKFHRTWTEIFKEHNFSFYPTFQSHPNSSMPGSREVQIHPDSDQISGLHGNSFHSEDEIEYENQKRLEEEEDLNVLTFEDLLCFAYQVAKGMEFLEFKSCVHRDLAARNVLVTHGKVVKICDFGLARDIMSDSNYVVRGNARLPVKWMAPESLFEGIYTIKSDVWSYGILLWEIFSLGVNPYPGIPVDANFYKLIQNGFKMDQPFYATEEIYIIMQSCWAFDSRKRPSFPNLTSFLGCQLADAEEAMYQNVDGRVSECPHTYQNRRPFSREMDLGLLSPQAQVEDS
Description: (§1) Ba/F3-Flt3 (Minus IL3 or Plus IL3) (Cellular Proliferation Assay)
(§2) In a 384 well plate, 100 nl of compound dilution in DMSO was sprayed before adding 50 μl cell culture medium (phenol red free RPMI-1640, 10% FBS, 2 mM L-Glutamine and 50 μg/ml Gentamycin) containing 20000 cells per well of Ba/F3-Flt3-transfected cells. Cells were put in an incubator at 37° C. and 5% CO2. After 24 hours, 10 μl of Alamar Blue solution (0.5 mM K3Fe(CN)6, 0.5 mM K4Fe(CN)6, 0.15 mM Resazurin and 100 mM Phosphate Buffer) was added to the wells, incubated for 4 hours at 37° C. and 5% CO2 before RFU's (Relative Fluorescence Units) (ex. 540 nm., em. 590 nm.) were measured in a fluororescence plate reader.
(§3) In this assay, the inhibitory effect of different compound concentrations (range 10 μM to 0.1 nM) was determined and used to calculate an IC50 (M) and pIC50 (−log IC50) value.
(§4) As a counterscreen the same experiment was performed in the presence of 10 ng/ml murine IL3.

[2] = tested on: Ba/F3-Flt3-transfected cells; test: as above; type: cell-based; settings: 24 h; plus 10 ng/ml murine IL3 (counterscreen); read-out: BAF3_FLT3 (PLUS IL3) pIC50 (converted)
Description: as §1, §2, §3, §4

[3] = target: T2, Ba/F3-FGFR1-transfected cells (Homo sapiens, UniProt P11362); test: Ba/F3-FGFR1 (minus IL3 or plus IL3) cellular proliferation assay; type: cell-based; settings: minus IL3
T2 construct: BAF3-FGFR1 (MIN IL3) pIC50; other: minus IL3
Description: (§5) Ba/F3-FGFR1 (Minus IL3 or Plus IL3) (Cellular Proliferation Assay)
as §2, with “Ba/F3-FGFR1-transfected” for “Ba/F3-Flt3-transfected”
as §3, §4

[4] = tested on: Ba/F3-FGFR1-transfected cells; test: as above; type: cell-based; settings: 24 h; plus 10 ng/ml murine IL3 (counterscreen); read-out: BAF3-FGFR1 (PLUS IL3) pIC50 (converted)
Description: as §5
as §2, with “Ba/F3-FGFR1-transfected” for “Ba/F3-Flt3-transfected”
as §3, §4

FGFR1 (h) = FGFR1 (h) (Homo sapiens, UniProt P11362); test: FGFR1 (enzymatic assay), TR-FRET; type: biochemical; settings: 5 μM ATP; read-out: FGFR1 pIC50 (converted)
Description: In a final reaction volume of 30 μL, FGFR1 (h) (25 ng/ml) was incubated with 50 mM HEPES pH 7.5, 6 mM MnCl2, 1 mM DTT, 0.1 mM Na3VO4, 0.01% Triton-X-100, 500 nM Btn-Flt3 and 5 μM ATP in the presence of compound (1% DMSO final). After incubation for 60 minutes at room temperature the reaction was stopped with 2.27 nM EU-anti P-Tyr, 7 mM EDTA, 31.25 nM SA-XL-665 and 0.02% BSA which was present for 60 minutes at room temperature. Time-Resolved Fluorescence Resonance Energy Transfer (TR-FRET) signal (ex340 nm. Em 620 nm, em 655 nm) was measured afterwards and results are expressed in RFU (Relative Fluorescence Units). In this assay, the inhibitory effect of different compound concentrations (range 10 μM to 0.1 nM) was determined and used to calculate an IC50 (M) and pIC50 (−log IC50) value.

Chain of FGFR1 (h) (P11362 22-822): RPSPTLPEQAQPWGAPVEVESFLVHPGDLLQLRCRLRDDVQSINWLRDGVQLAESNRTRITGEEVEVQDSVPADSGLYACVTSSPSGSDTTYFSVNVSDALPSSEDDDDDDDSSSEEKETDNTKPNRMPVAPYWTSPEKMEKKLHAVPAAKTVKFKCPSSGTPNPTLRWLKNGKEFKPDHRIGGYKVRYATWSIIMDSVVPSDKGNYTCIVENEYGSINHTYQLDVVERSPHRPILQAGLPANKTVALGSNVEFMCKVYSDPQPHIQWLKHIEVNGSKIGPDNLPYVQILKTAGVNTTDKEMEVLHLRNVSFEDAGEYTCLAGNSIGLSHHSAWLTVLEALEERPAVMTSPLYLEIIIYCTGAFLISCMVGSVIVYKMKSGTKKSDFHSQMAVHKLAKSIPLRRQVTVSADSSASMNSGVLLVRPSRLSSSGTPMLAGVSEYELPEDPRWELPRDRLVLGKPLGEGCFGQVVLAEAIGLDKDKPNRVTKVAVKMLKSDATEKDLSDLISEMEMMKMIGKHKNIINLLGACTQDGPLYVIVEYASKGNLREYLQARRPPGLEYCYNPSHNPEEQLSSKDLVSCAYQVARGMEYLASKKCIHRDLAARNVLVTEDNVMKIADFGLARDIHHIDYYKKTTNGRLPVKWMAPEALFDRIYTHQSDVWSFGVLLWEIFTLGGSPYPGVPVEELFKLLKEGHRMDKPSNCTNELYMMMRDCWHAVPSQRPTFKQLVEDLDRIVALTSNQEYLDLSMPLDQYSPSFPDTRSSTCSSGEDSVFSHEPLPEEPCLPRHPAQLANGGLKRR
T2 sequence (P11362 whole entry, change not shown): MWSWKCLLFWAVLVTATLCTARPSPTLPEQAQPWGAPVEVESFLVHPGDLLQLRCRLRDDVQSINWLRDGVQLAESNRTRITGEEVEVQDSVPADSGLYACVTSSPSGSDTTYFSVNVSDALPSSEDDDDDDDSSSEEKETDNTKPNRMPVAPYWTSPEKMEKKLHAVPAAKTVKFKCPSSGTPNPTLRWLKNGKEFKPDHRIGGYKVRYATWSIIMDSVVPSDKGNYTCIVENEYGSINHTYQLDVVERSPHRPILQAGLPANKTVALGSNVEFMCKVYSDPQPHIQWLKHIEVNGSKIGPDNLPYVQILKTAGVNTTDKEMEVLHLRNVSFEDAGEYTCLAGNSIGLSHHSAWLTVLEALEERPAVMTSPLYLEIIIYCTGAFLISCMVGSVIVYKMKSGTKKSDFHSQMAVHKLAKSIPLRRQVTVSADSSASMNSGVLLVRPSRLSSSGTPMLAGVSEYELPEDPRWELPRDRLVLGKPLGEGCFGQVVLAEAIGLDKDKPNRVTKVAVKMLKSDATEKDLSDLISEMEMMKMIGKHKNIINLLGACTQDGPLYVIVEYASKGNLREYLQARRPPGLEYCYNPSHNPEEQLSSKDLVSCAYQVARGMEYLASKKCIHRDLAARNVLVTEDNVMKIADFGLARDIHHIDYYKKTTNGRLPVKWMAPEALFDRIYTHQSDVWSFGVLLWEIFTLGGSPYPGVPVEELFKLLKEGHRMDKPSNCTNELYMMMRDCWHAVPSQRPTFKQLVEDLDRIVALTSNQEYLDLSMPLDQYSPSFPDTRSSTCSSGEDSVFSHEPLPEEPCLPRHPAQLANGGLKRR

Row | SMILES | BAF3-FLT3 (MIN IL3) pIC50 [1] | IC50 [2] [µM] | BAF3-FGFR1 (MIN IL3) pIC50 [3] | IC50 [4] [µM] | IC50 (FGFR1 (h)) [µM]
1 | COc1cc(OC)cc(C(CC(=O)NC(C)C)c2ccc3ncc(-c4cnn(C)c4)nc3c2)c1 (stereo not drawn) [Compound 23] | <5 | > 10 | <5 | > 10 | > 1
2 | COc1cc(OC)cc(C(CC(C)(O)CNC(C)C)c2ccc3ncc(-c4cnn(C)c4)nc3c2)c1.Cl (stereo not drawn) [Compound 25] | <5 | > 10 | <5 | > 10 | 0.794
3 | Cn1cc(-c2cnc3ccc(C(O)c4ccccc4)cc3n2)cn1 (stereo not drawn) [Compound 28] | <5 | > 10 | <5 | > 10 | ~1.51
4 | COc1cc(OC)cc(C(CCNC(C)C)c2ccc3ncc(-c4cnn(C)c4)nc3c2)c1.Cl (stereo not drawn) [Compound 29, {3-(3,5-Dimethoxy-phenyl)-3-[3-(1-methyl-1H-pyrazol-4-yl)-quinoxalin-6-yl]-propyl}-isopropyl-amine] | <5 | > 10 | 6.18 | > 10 | 0.0229
5 | COc1cc(OC)cc(C2(c3ccc4ncc(-c5cnn(C)c5)nc4c3)CC2)c1 [Compound 30] | <5 | > 10 | 5.23 | > 10 | 0.0912
6 | COc1cc(OC)cc(C(CCNCC(F)(F)F)c2ccc3ncc(-c4cnn(C)c4)nc3c2)c1.Cl (stereo not drawn) [Compound 33] | <5 | > 10 | 5.11 | > 10 | 0.224
7 | COc1cc(OC)cc(/C(=C/CN(C)C)c2ccc3ncc(-c4cnn(C)c4)nc3c2)c1 [Compound 34] | <5 | > 10 | 5.08 | > 10 | 0.132
8 | CN(C)CCC(c1ccccc1)c1ccc2ncc(-c3cnn(C)c3)nc2c1 (stereo not drawn) [Compound 35] | <5 | > 10 | <5 | > 10 | > 1
9 | COc1cc(OC)cc(C(CCCN)c2ccc3ncc(-c4cnn(C)c4)nc3c2)c1.Cl (stereo not drawn) [Compound 40] | <5 | > 10 | 5 | > 10 | 0.49
